From PubChem BioAssay (NCI)
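Growth conditions: 96-well plates. Treatment: test compound, 48 hours, 5 concentrations. Analysis: linear interpolation between bracketing concentrations; unreached endpoints set to highest concentration. At the GI50, growth is halved. Definition used: TGI = concentration required for complete inhibition of growth.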

Columns and labels:
Assay in all cases: growth of human tumour cells (NCI), 48 h
[1] = test system: OVCAR-5 ovarian
[2] = test system: CCRF-CEM leukemia
[3] = test system: TK-10 renal
[4] = test system: UACC-62 melanoma
[5] = test system: SK-OV-3 ovarian
[6] = test system: SR leukemia
[7] = test system: SK-MEL-5 melanoma
[8] = test system: OVCAR-4 ovarian
[9] = test system: NCI/ADR-RES ovarian
[10] = test system: MDA-MB-231 breast

SMILES	TGI [1]	TGI [2]	TGI [3]	TGI [4]	TGI [5]	TGI [6]	TGI [7]	TGI [8]	GI50 [1]	GI50 [2]	GI50 [3]	GI50 [4]	GI50 [5]	GI50 [7]	GI50 [8]	GI50 [6]	GI50 [9]	TGI [9]	GI50 [10]	TGI [10]
CN1CCCC2(CCCc3ccccc32)C1 (stereo not given)	> 100 µM	> 100 µM	> 100 µM	> 100 µM	> 100 µM	> 100 µM	> 100 µM	> 100 µM	–	–	–	–	–	–	–	–	–	–	–	–
CN(C)CC(C)(C)C(=O)/C=C/c1ccc(/C=C/C(=O)C(C)(C)CN(C)C)cc1	3.51 µM	3.78 µM	3.03 µM	3.17 µM	8.12 µM	5.45 µM	5.13 µM	2.29 µM	–	–	–	–	–	–	–	–	–	–	–	–
COc1ccc2c(CN3CCCCC3CO)cc3cc(OC)c(OC)cc3c2c1 (stereo not given)	12 µM	18.8 µM	27.5 µM	25.7 µM	70.2 µM	22.2 µM	20.6 µM	–	–	–	–	–	–	–	–	–	–	–	–	–
[Cl-].[O-]/N=C(\c1ccccc1)c1ccccn1.[O-]/N=C(\c1ccccc1)c1ccccn1.[O-]/N=C(\c1ccccc1)c1ccccn1.[Sm+3]	> 100 µM	98.8 µM	> 100 µM	78.7 µM	> 100 µM	–	47 µM	> 100 µM	53.9 µM	26.6 µM	24.5 µM	26.2 µM	32.6 µM	20.5 µM	43.3 µM	–	–	–	–	–
COc1ccc(OC)c2c1CC(C(=O)O)(C(=O)O)CC2=O	> 100 µM	–	> 100 µM	> 100 µM	> 100 µM	–	> 100 µM	> 100 µM	–	–	–	–	–	–	–	–	–	–	–	–
O=c1nc(/C=C/c2ccccc2Cl)cc2n1CCN2CCO	> 100 µM	> 100 µM	> 100 µM	> 100 µM	> 100 µM	> 100 µM	–	> 100 µM	–	–	–	–	–	–	–	–	–	–	–	–
Cc1[nH]c2ccccc2c1C(=O)CC1(O)C(=O)Nc2ccccc21 (stereo not given)	> 100 µM	> 100 µM	> 100 µM	> 100 µM	> 100 µM	> 100 µM	> 100 µM	> 100 µM	–	–	–	–	–	–	–	–	–	–	–	–
COc1ccc2c(c1)N1CCc3cc(OC)c(OC)cc3C1C2 (stereo not given)	–	> 100 µM	> 100 µM	> 100 µM	> 100 µM	> 100 µM	–	> 100 µM	–	–	–	–	–	–	–	–	–	–	–	–
CC(=O)[CH-]C(C)=O.CC(=O)[CH-]C(C)=O.[CH2-]CCC.[CH2-]CCC.[Sn+4]	3.22 µM	–	1.36 µM	1.18 µM	3.09 µM	> 100 µM	2.15 µM	2.61 µM	1.82 µM	0.0483 µM	0.423 µM	0.31 µM	1.69 µM	0.848 µM	1.31 µM	0.382 µM	–	–	–	–
COc1cc(OC)cc(N(CCNC(C)C)c2ccc3ncc(-c4cnn(C)c4)nc3c2)c1	19.8 µM	47 µM	12.1 µM	21.5 µM	6 µM	–	–	14.8 µM	5.42 µM	8.48 µM	2.81 µM	6.76 µM	1.99 µM	–	2.25 µM	–	5.8 µM	22 µM	4.63 µM	18.4 µM
CN(C)CC(C)(C)/C(=N\Nc1ccccc1)c1ccccc1	> 100 µM	> 100 µM	61.1 µM	40.8 µM	73.3 µM	–	> 100 µM	> 100 µM	–	–	–	–	–	–	–	–	–	–	–	–
CCOC(=O)C1N(S(=O)(=O)c2ccc(C)cc2)CCC12c1ccccc1N(C(C)=O)C2c1ccc(OC)c(OC)c1 (stereo not given)	> 100 µM	> 100 µM	> 100 µM	> 100 µM	> 100 µM	–	> 100 µM	> 100 µM	–	–	–	–	–	–	–	–	–	–	–	–
c1cc(N(CCn2cccn2)CCn2cccn2)cc(N(CCn2cccn2)CCn2cccn2)c1	–	> 100 µM	> 100 µM	> 100 µM	> 100 µM	> 100 µM	> 100 µM	> 100 µM	–	–	–	–	–	–	–	–	–	–	–	–
O=C1c2ccccc2C(Br)(Br)c2ccccc21	> 31.6 µM	> 31.6 µM	> 100 µM	> 100 µM	> 31.6 µM	> 31.6 µM	> 31.6 µM	> 31.6 µM	–	–	–	–	–	–	–	–	–	–	–	–
Cc1ccc(S(=O)(=O)N/N=C(\c2nc3ccc(Cl)cc3[nH]c2=O)C(O)c2cccc([N+](=O)[O-])c2)cc1 (stereo not given)	> 100 µM	> 100 µM	> 100 µM	> 100 µM	> 100 µM	> 100 µM	> 100 µM	> 100 µM	–	–	–	–	–	–	–	–	–	–	–	–
COc1ccc(OC)c(/C(C)=N/NC(N)=S)c1	> 100 µM	> 100 µM	> 100 µM	> 100 µM	> 100 µM	> 100 µM	> 100 µM	> 100 µM	–	–	–	–	–	–	–	–	–	–	–	–
